# US20240270811A1, “Glycosylated Neuropeptide Derivative, Pharmaceutical Composition, Intranasal/Nasal Drop Formulation, and Use of Pharmaceutical Composition” (Tokyo University of Science Foundation, priority 2021, published 2024)
# Where no end group is shown, it is not given here. The star is where a group is joined. Cam = NC(=O)C*
# What was measured:
# [1] = test system: 7-week-old male ddY mouse; test: Forced swim test (FST) after intranasal administration; type: in vivo; details: 16% DMSO in PBS, 0.6 nmol/mouse intranasal, 20 minutes before test session
# Experimental: Administration solutions were prepared by completely dissolving PAS-CPP-GLP-2 derivative (no sugar) or PAS-CPP-GLP-2 derivatives (11-sugar, 5-sugar) in DMSO and adding PBS such that the final concentration of DMSO was 16% by mass. The concentration of each GLP-2 derivative was adjusted to 0.6 nmol/4 μL.
# After anesthetizing mice with isoflurane using an all-in-one small animal anesthetizer (MK-AT210D, Muromachi Kikai Co., Ltd., hereinafter the same), the solution was intranasally administered to the mice. Specifically, the intranasal administration was performed by contacting a tip of the anesthetizer to a nasal cavity in a horizontal manner such that the solution was inhaled by spontaneous respiration, by the amount of 2 μL per nose cavity, 4 μL in total (0.6 nmol/mouse). […]
# A 7-week-old male ddY mouse is placed in a transparent plastic cylinder with a diameter of 18 cm and a height of 50 cm containing water at a temperature of 25° C.±1° C. to a height of 7 cm, and is allowed to swim for 15 minutes. […] The behavior of the mouse is recorded over the test session with a video camera. […] The time during which the mouse is in a state of immobility (immobility time) is measured in the first 6 minutes from the start of the test session. The existence or non-existence of anti-depressant-like effects is determined by the length of the immobility time. […]
# [2] = Solubility of GLP-2/GLP-1 derivatives with respect to aqueous medium (PBS); type: physicochemical
# Experimental: Samples were prepared by dispensing a Milli-Q aqueous solution of PAS-CPP-GLP-2 (no sugar), PAS-CPP-GLP-2 (5-sugar) or PAS-CPP-GLP-2 (11-sugar) to a microtube by an amount of 5 nmol/tube, 30 nmol/tube, 60 nmol/tube, 120 nmol/tube or 200 nmol/tube, and freeze-drying the same. The freeze-dried samples were added with […] of PBS (Dulbecco's Phosphate Buffered Saline; Sigma-Aldrich, herein after the same), subjected to ultrasonic treatment, and allowed to stand overnight. Thereafter, the concentration of the peptide was measured. Specifically, a supernatant obtained by centrifuging the sample suspension was subjected to the measurement of OD (280 nm) with a spectrometer (NanoDrop™ 2000c spectrometer; Thermo Fisher Scientific K.K.)
# Administration solutions were prepared by mixing a PAS-CPP-GLP-2 derivative (no sugar) or a PAS-CPP-GLP-2 derivative (11-sugar) with PBS. […] The concentration of each GLP-2 derivative was adjusted to 0.6 nmol/4 μL.
# (§1) The concentration of a PAS-CPP-GLP-2 derivative (no sugar) or a PAS-CPP-GLP-2 derivative (11-sugar) was adjusted to 3.0 nmol/4 μL.
# [3] = Amount of migration to brain quantified by GLP-2 ELISA; type: in vivo; details: 6.0 nmol/mouse intranasal, brain isolated 20 minutes after administration
# Experimental: Mice were intranasally administered with 16% DMSO or GLP-2 derivatives (6.0 nmol/mouse). The brain was isolated 20 minutes after the administration, and homogenized with BioMasher II (Nippi, Tokyo, Japan). A sample was prepared by performing centrifugal separation by 1000×g for 15 minutes and collecting a supernatant. The amount of a GLP-2 derivative in the sample was quantified using a GLP-2 ELISA kit. Specifically, a cleaning process including filling each well of a measurement plate with a cleaning fluid (350 μL) and suctioning the cleaning fluid with a pipette was performed three times. Subsequently, a labeled antigen solution (40 μL), a sample (25 μL) and a specific antibody solution (50 μL) were added in this order to the well and mixed. The measurement plate was tightly sealed and allowed to stand for 18 hours at 4° C. The cleaning process was performed three times, and a SA-HRP solution (100 μL) was added and allowed to permeate for 1.5 hours at room temperature (60 rpm). […] Finally, an enzyme reaction stop solution (100 μL) was added and an absorbance at 490 nm was measured with ARVO (PerkinElmer Japan Co., Ltd., Kanagawa, Japan) to calculate the concentration of a GLP-2 derivative.
# [4] = Migration to central nervous system, optical imaging of brain sagittal sections (ICG-labelled derivatives); type: in vivo, mouse; details: 3.0 nmol/4 μL intranasal
# Experimental: Administration solutions were prepared by completely dissolving a PAS-CPP-GLP-2 derivative (no sugar) labelled with ICG or a PAS-CPP-GLP-2 derivative (11-sugar) labelled with ICG in DMSO, and adjusting the final concentration of DMSO to 16% by adding PBS.
# as §1
# After anesthetizing mice with isoflurane using an all-in-one small animal anesthetizer, the administration solutions or 16% DMSO as a control was intranasally administered to the mice by the amount of 2 μL per nose cavity, 4 μL in total.
# In order to observe the migration to the brain over time, the brain was isolated 5 minutes, 10 minutes, 20 minutes, 60 minutes and 90 minutes after the intranasal administration, respectively, and subjected to infiltration fixation with 4% paraformaldehyde (4% PFA) solution overnight. Subsequently, a sagittal section with a thickness of 2 mm at the left and the right from the center of the brain was prepared using a brain matrix (RBM-2000S, ASI). The section was placed in a dish and analyzed with an optical imaging apparatus (Clairvivo OPT plus, Shimadzu Corporation) at an excitation wavelength of 785 nm, fluorescence wavelength of 849 nm, and an exposure time: 6 seconds.
Substance,immobility time / anti-depressant-like effect vs control group [1],solubility with respect to PBS (FIG. 1) [2],amount of GLP-2 derivative in brain [3],fluorescence in brain section ([4]; 10 minutes after administration),fluorescence in brain section ([4]; 20 minutes after administration),fluorescence in brain section ([4]; 60 minutes after administration)
glucagon-like peptide-2 (HADGSFSDEMNTILDNLAARDFINWLIQTKITD; GLP-2),did not show a significant decrease in immobility time,–,–,–,–,–
"FFLIPKGRRRRRRRRGGHADGSFSDEMNTILDNLAARDFINWLIQTKITDC(Cam)-OH [PAS-CPP-GLP-2 (no sugar), reference compound]",–,not dissolved in PBS at all,below the detection limit,fluorescence was observed at a region around the hippocampus,fluorescence was observed,fluorescence was not observed
